From patent US11427869B2, “T cell balance gene expression, compositions of matters and methods of use thereof” (THE BROAD INSTITUTE, INC., priority 2015, dated 2022)

Test system: CD5L−/− Th17 cells
Assay: Nanostring nCounter Th17 codeset (312 genes), PUFA- or control-treated CD5L−/− Th17 cells
Type: cell-based, mouse
Details: CD5LKO Th17 cells + PUFA
Excerpt: Applicants studied the contribution of lipid saturation to Th17 cell pathogenicity. […] Applicants analyzed the expression of a 312 gene signature of Th17 cell differentiation and function (Yosef et al., 2013) in SFA- or control-treated WT Th17 cells and in PUFA- or control-treated CD5L−/− Th17 cells differentiated with TGF-81+IL-6.
T cell differentiation culture. Naïve CD4+CD44−CD62L+CD25− T cells or Effector memory CD4+CD44+CD62L− were sorted using BD FACSAria sorter and activated with plate-bound anti-CD3 and anti-CD28 antibodies (both at 2 μg/ml) in the presence of cytokines at a concentration of 2.5×10^5 cells/ml. For Th17 differentiation: 2 ng/ml of rhTGFβ1, 2 ng/ml of rhTGFβ3, 25 ng/ml rmIL-6, 20 ng/ml rmIL-18 (all from Miltenyi Biotec) and 20 ng/ml rmIL-23 (R & D systems) were used at various combinations as specified in figures. For Th1 differentiation, 20 ng/ml rmIL-12 (R & D systems); for Th2 differentiation 20 ng/ml rmIL-4 (Miltenyi Biotec); for iTreg differentiation, 2.5 ng/ml of rhTGFβ1 were used (Miltenyi Biotec). For differentiation experiments, cells were harvested at 48 hours. For restimulation experiments, cells were differentiated for 48 hours and resuspended in fresh media with no additional cytokines for 48-72 hours. Cells were re-stimulated with PMA/ionomycin for four hours before analysis for cytokines by intracellular cytokine staining. For experiments with exogenous fatty acid, fatty acids were purchased and resuspended first with serum-free media containing BSA prior being added to culture.
Nanostring nCounter. Nanostring nCounter platform (NanoString Technologies) is used to measure the number of RNA transcripts in RNA samples (FIG. 16I, FIG. 18D). A codeset containing 312 signature genes of Th17 cell differentiation and function as well as 4 additional house-keeping genes were custom-made (Yosef et al., 2013) and used in these experiments. Experimental procedures as detailed by the manufacturer is strictly followed.

CCCCC/C=C\C/C=C\C/C=C\C/C=C\CCCC(=O)O [PUFA, arachidonic acid]
ATF2 expression (Nanostring), normalized to WT: 0.89
Abcg2 expression (Nanostring), normalized to WT: 1.20
Acvr2a expression (Nanostring), normalized to WT: 1.32
Ahr expression (Nanostring), normalized to WT: 1.08
Arl5a expression (Nanostring), normalized to WT: 1.33
Atf4 expression (Nanostring), normalized to WT: 0.73
BC021614 expression (Nanostring), normalized to WT: 1.04
Bcl2l11 expression (Nanostring), normalized to WT: 0.71
Bcl3 expression (Nanostring), normalized to WT: 1.13
Bcl11b expression (Nanostring), normalized to WT: 1.03
Bhlhe40 expression (Nanostring), normalized to WT: 0.70
Casp3 expression (Nanostring), normalized to WT: 0.71
Casp4 expression (Nanostring), normalized to WT: 1.52
Ccl1 expression (Nanostring), normalized to WT: 0.67
Ccl20 expression (Nanostring), normalized to WT: 0.84
Ccr4 expression (Nanostring), normalized to WT: 1.69
Ccr8 expression (Nanostring), normalized to WT: 0.71
Cd9 expression (Nanostring), normalized to WT: 1.27
Cd70 expression (Nanostring), normalized to WT: 0.77
Cd83 expression (Nanostring), normalized to WT: 0.88
Cd86 expression (Nanostring), normalized to WT: 1.73
Cd247 expression (Nanostring), normalized to WT: 1.32
Clcf1 expression (Nanostring), normalized to WT: 1.25
Csf2 expression (Nanostring), normalized to WT: 1.20
Ctla4 expression (Nanostring), normalized to WT: 1.63
Cxcl10 expression (Nanostring), normalized to WT: 1.64
Cxcr3 expression (Nanostring), normalized to WT: 1.44
Cxcr4 expression (Nanostring), normalized to WT: 0.87
Cxcr5 expression (Nanostring), normalized to WT: 1.42
EBF1 expression (Nanostring), normalized to WT: 1.64
Egr2 expression (Nanostring), normalized to WT: 1.64
Elk3 expression (Nanostring), normalized to WT: 1.04
Ercc5 expression (Nanostring), normalized to WT: 0.66
Etv6 expression (Nanostring), normalized to WT: 1.70
Faim3 expression (Nanostring), normalized to WT: 1.31
Fli1 expression (Nanostring), normalized to WT: 1.35
Flna expression (Nanostring), normalized to WT: 1.10
Foxo1 expression (Nanostring), normalized to WT: 1.03
Foxp1 expression (Nanostring), normalized to WT: 1.25
Foxp3 expression (Nanostring), normalized to WT: 1.22
Frmd4b expression (Nanostring), normalized to WT: 1.28
Fxd7 expression (Nanostring), normalized to WT: 0.72
Gap43 expression (Nanostring), normalized to WT: 0.68
Gem expression (Nanostring), normalized to WT: 0.73
Gimap5 expression (Nanostring), normalized to WT: 1.58
Gja1 expression (Nanostring), normalized to WT: 0.66
Gmfg expression (Nanostring), normalized to WT: 0.76
Grn expression (Nanostring), normalized to WT: 1.16
Gusb expression (Nanostring), normalized to WT: 0.94
Hip1r expression (Nanostring), normalized to WT: 0.89
IL-33 expression (Nanostring), normalized to WT: 0.66
Ifih1 expression (Nanostring), normalized to WT: 1.25
Ifng expression (Nanostring), normalized to WT: 0.93
Ikzf3 expression (Nanostring), normalized to WT: 1.06
Il1r1 expression (Nanostring), normalized to WT: 1.36
Il2ra expression (Nanostring), normalized to WT: 0.99
Il3 expression (Nanostring), normalized to WT: 1.45
Il4ra expression (Nanostring), normalized to WT: 1.13
Il6st expression (Nanostring), normalized to WT: 0.89
Il7r expression (Nanostring), normalized to WT: 1.37
Il10 expression (Nanostring), normalized to WT: 1.01
Il10ra expression (Nanostring), normalized to WT: 0.95
Il12rb1 expression (Nanostring), normalized to WT: 0.80
Il12rb2 expression (Nanostring), normalized to WT: 1.60
Il17a expression (Nanostring), normalized to WT: 1.11
Il17f expression (Nanostring), normalized to WT: 0.71
Il21 expression (Nanostring), normalized to WT: 0.97
Il23r expression (Nanostring), normalized to WT: 1.11
Il27ra expression (Nanostring), normalized to WT: 1.55
Inhba expression (Nanostring), normalized to WT: 0.81
